The record followed here is patent US20130116263A1, “PAK INHIBITORS FOR THE TREATMENT OF CELL PROLIFERATIVE DISORDERS” (AFRAXIS, INC., priority 2011, published 2013).

What is called IC50 is the concentration that gives 50% inhibition.

Common to all, as to assay type: biochemical
In assay [1] the target is PAK1 (Homo sapiens, UniProt Q13153). Nature of the assay: In vitro PAK inhibition assay (Z'-LYTE, SelectScreen), PAK1. Conditions: read-out: PAK1 IC50. A digest of the protocol:
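FRET-based Z'-LYTE readout: PAK1 phosphorylates Ser/Thr 19 peptide in 50 mM HEPES pH 7.5, 0.01% BRIJ-35, 10 mM MgCl2, 1 mM EGTA, 1% DMSO, 60 min at room temperature, followed by 60 min development.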

Assay [2] has as its target PAK2 (PAK65) (Homo sapiens, UniProt Q13177). Nature of the assay: In vitro PAK inhibition assay (Z'-LYTE, SelectScreen), PAK2. Conditions: read-out: PAK2 IC50. A digest of the protocol: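 Z'-LYTE FRET readout using Ser/Thr 20 peptide (2 μM) with 0.29–6 ng PAK2 in 50 mM HEPES pH 7.5, 0.01% BRIJ-35, 10 mM MgCl2, 1 mM EGTA, 1% DMSO. Reaction and development each ran 60 min at room temperature.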

The target in assay [3] is PAK3 (Homo sapiens, UniProt O75914). As to the kind of experiment: In vitro PAK inhibition assay (Z'-LYTE, SelectScreen), PAK3. Conditions: read-out: PAK3 IC50. A digest of the protocol:
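Z'-LYTE FRET format: PAK3 with Ser/Thr 20 peptide in 50 mM HEPES pH 7.5, 0.01% BRIJ-35, 10 mM MgCl2, 1 mM EGTA, 1% DMSO final. Kinase reaction 60 min at room temperature, then 60 min development and fluorescence read.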

Assay [4] concerns the target PAK4 (Homo sapiens, UniProt O96013). As to the kind of experiment: In vitro PAK inhibition assay (Z'-LYTE, SelectScreen), PAK4. A digest of the protocol:
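Z'-LYTE FRET assay with 0.1-0.75 ng PAK-4 and 2 μM Ser/Thr 20 peptide in 50 mM HEPES pH 7.5, 10 mM MgCl2, 1 mM EGTA, 0.01% BRIJ-35, 1% DMSO; ATP near apparent Km. 1 h kinase reaction at room temperature, then 1 h development; IC50 from 10-point 3-fold titrations fitted to a sigmoidal dose-response.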

Molecules are shown by their SMILES.

Chain of PAK2 (PAK65) (Q13177 whole entry): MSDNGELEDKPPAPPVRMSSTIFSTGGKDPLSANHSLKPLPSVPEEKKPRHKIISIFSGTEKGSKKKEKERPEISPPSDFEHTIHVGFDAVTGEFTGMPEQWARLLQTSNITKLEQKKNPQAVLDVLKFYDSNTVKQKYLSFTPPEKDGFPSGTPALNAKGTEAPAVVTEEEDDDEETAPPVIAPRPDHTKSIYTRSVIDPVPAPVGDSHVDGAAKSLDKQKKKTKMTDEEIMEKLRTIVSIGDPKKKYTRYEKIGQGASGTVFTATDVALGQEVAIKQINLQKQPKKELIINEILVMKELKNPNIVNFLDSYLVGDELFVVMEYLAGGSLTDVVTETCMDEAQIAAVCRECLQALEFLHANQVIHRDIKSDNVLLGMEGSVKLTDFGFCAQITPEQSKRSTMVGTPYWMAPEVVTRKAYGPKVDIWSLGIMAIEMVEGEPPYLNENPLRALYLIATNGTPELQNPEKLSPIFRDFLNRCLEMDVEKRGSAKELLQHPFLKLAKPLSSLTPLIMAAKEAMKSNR
Chain of PAK1 (Q13153 whole entry): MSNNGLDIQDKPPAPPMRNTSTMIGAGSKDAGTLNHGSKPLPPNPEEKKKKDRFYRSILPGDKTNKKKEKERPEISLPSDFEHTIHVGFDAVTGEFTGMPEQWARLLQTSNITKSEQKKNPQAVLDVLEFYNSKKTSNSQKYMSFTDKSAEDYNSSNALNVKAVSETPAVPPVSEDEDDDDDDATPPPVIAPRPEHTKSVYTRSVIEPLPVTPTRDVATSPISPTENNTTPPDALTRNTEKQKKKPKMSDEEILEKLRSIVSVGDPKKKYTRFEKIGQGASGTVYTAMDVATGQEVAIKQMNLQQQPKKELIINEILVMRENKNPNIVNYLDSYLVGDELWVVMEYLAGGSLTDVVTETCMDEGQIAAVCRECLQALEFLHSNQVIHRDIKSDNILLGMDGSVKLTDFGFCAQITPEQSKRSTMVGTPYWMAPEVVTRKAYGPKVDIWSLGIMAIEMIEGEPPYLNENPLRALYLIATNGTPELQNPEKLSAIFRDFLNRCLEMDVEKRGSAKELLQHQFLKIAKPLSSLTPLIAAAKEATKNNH
Chain of PAK3 (O75914 1-544 isoform O75914-2): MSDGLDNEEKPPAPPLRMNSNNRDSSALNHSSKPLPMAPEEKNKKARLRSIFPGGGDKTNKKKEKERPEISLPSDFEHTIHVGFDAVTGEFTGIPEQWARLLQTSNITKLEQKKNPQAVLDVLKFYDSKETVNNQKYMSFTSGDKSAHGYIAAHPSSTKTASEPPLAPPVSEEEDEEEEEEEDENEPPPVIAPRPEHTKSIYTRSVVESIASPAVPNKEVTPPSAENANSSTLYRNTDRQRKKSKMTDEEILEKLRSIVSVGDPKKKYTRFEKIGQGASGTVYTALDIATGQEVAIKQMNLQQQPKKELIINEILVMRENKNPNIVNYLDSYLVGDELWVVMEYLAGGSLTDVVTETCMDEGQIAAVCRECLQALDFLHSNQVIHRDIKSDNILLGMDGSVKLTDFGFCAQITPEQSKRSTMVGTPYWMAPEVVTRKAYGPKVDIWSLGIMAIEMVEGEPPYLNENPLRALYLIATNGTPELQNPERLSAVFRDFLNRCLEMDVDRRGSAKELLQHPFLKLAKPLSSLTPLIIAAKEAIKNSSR
Chain of PAK4 (O96013 whole entry): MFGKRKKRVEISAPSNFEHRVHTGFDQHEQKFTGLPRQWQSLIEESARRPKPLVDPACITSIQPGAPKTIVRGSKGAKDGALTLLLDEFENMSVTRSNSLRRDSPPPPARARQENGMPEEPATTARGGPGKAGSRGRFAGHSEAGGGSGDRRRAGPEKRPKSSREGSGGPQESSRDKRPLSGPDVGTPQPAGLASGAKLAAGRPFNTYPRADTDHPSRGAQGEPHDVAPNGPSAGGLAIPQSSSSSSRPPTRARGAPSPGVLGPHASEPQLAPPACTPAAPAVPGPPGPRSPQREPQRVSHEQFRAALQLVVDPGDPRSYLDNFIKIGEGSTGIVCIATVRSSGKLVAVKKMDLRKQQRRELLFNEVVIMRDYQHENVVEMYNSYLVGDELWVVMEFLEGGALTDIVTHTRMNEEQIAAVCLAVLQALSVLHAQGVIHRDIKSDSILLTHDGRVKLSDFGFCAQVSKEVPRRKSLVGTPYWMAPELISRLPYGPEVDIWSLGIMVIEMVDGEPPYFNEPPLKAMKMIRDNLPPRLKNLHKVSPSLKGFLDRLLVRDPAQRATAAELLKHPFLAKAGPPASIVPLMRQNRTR

As to `CCn1c(=O)c(-c2ccc(-c3cncc(C)n3)cc2Cl)cc2cnc(N[C@H]3CC[C@@H](N)CC3)nc21` [Example 86], the concentration for half-maximal inhibition (IC50) is 50 to 500 nM in assay [1], 50 to 500 nM in assay [2], 500 to 5000 nM in assay [3] and > 5000 nM in assay [4].

In the case of `CCn1c(=O)c(-c2ccc(-c3cncc(C)n3)cc2Cl)cc2cnc(NCCCOCCCN(C)C)nc21` [Example 130], the IC50 in assay [1] was 50 to 500 nM; in assay [2], 50 to 500 nM; in assay [3] it was 50 to 500 nM; in assay [4] it was > 5000 nM.

As to `CCn1c(=O)c(-c2ccc(-c3cncc(C)n3)cc2Cl)cc2cnc(NC3CNC(=O)C3)nc21` (centres unmarked) [Example 66], the IC50 in assay [1] was 50 to 500 nM; in assay [2] it was < 50 nM; in assay [3], 50 to 500 nM; in assay [4] it was > 5000 nM.

For the compound `Cc1cncc(-c2ccc(-c3cc4cnc(N[C@H]5CCOC5)nc4n(CCCN)c3=O)c(Cl)c2)n1` [Example 98], the IC50 in assay [1] is < 50 nM; in assay [2], < 50 nM; in assay [3] it was < 50 nM; in assay [4] it was > 5000 nM.

On to `Cc1cncc(-c2ccc(-c3cc4cnc(N[C@@H]5CCOC5)nc4n(C4CCN(C)CC4)c3=O)c(Cl)c2)n1` [Example 107], for which the IC50 in assay [1] was 50 to 500 nM; in assay [2], 50 to 500 nM; in assay [3], 500 to 5000 nM; in assay [4], > 5000 nM.

For `CCn1c(=O)c(-c2ccc(-c3cccnc3)cc2Cl)cc2cnc(N[C@@H]3CCOC3)nc21` [Example 51], the IC50 was 50 to 500 nM in assay [1], 50 to 500 nM in assay [2], 500 to 5000 nM in assay [3] and > 5000 nM in assay [4].

On to `CCn1c(=O)c(-c2ccc(-c3cncc(C)n3)cc2Cl)cc2cnc(NCC3CCC(N)CC3)nc21` (centres unmarked) [Example 131], for which the IC50 is < 50 nM in assay [1], < 50 nM in assay [2], 50 to 500 nM in assay [3] and > 5000 nM in assay [4].

For `CCn1c(=O)c(-c2ccc(-c3nccnc3C)cc2Cl)cc2cnc(NC3CCOC3)nc21` (centres unmarked) [Example 15], the IC50 in assay [1] is 50 to 500 nM; in assay [2], 50 to 500 nM; in assay [3], 50 to 500 nM; in assay [4], > 5000 nM.

As for `CCn1c(=O)c(-c2ccc(-c3nccnc3C)cc2Cl)cc2cnc(NCCC3CCNCC3)nc21` [Example 136], the IC50 is < 50 nM in assay [1], < 50 nM in assay [2], 50 to 500 nM in assay [3] and > 5000 nM in assay [4].

In the case of `Cc1cncc(-c2ccc(-c3cc4cnc(NC5CCOCC5)nc4n(Cc4ccccc4F)c3=O)c(Cl)c2)n1` [Example 36], the IC50 was 50 to 500 nM in assay [1], 50 to 500 nM in assay [2], 50 to 500 nM in assay [3] and > 5000 nM in assay [4].

For `CCn1c(=O)c(-c2ccc(-c3ccn(C)n3)cc2Cl)cc2cnc(N[C@@H]3CCOC3)nc21` [Example 63], the IC50 in assay [1] is 50 to 500 nM; in assay [2] it was 50 to 500 nM; in assay [3], 500 to 5000 nM; in assay [4], > 5000 nM.

On to `CCn1c(=O)c(-c2ccc(-c3nccnc3C)cc2Cl)cc2cnc(NC3CCOC(C)C3)nc21` (centres unmarked) [Example 32], for which the IC50 was 50 to 500 nM in assay [1], < 50 nM in assay [2], 50 to 500 nM in assay [3] and > 5000 nM in assay [4].

With `CCn1c(=O)c(-c2ccc(-c3nccnc3C)cc2Cl)cc2cnc(NC3CCCNC3)nc21` (centres unmarked) [Example 82], the IC50 in assay [1] is 50 to 500 nM; in assay [2], 50 to 500 nM; in assay [3], 500 to 5000 nM; in assay [4], > 5000 nM.

Consider `CCn1c(=O)c(-c2ccc(-c3nccnc3C)cc2Cl)cc2cnc(NC3CCS(=O)(=O)CC3)nc21` [Example 75], for which the IC50 in assay [1] was 50 to 500 nM; in assay [2] it was 50 to 500 nM; in assay [3], 500 to 5000 nM; in assay [4], > 5000 nM.

Turning to `Cc1nccnc1-c1ccc(-c2cc3cnc(NC4CC4)nc3n([C@H]3CC[C@H](N)CC3)c2=O)c(Cl)c1` [Example 119], the IC50 is < 50 nM in assay [1], < 50 nM in assay [2], < 50 nM in assay [3] and > 5000 nM in assay [4].

Turning to `CCNc1ncc2cc(-c3ccc(-c4cncc(C)n4)cc3Cl)c(=O)n([C@H]3CC[C@H](N)CC3)c2n1` [Example 117], the IC50 in assay [1] is < 50 nM; in assay [2], < 50 nM; in assay [3], < 50 nM; in assay [4], 500 to 5000 nM.

Turning to `Cc1cncc(-c2ccc(-c3cc4cnc(N[C@@H]5CCOC5)nc4n(CCN)c3=O)c(Cl)c2)n1` [Example 99], the half-maximal inhibitory concentration (IC50) in assay [1] is < 50 nM; in assay [2], < 50 nM; in assay [3] it was 50 to 500 nM; in assay [4] it was > 5000 nM.

As to `Cc1cncc(-c2ccc(-c3cc4cnc(N[C@H]5CCOC5)nc4n(CCN(C)C)c3=O)c(Cl)c2)n1` [Example 103], the IC50 in assay [1] was 50 to 500 nM; in assay [2], 50 to 500 nM; in assay [3], 500 to 5000 nM; in assay [4], > 5000 nM.

Turning to `Cc1cnc(-c2ccc(-c3cc4cnc(NC5CCOCC5)nc4n(Cc4ccccc4C(F)(F)F)c3=O)c(Cl)c2)s1` [Example 26], the IC50 in assay [1] was 50 to 500 nM; in assay [2] it was 50 to 500 nM; in assay [3], 50 to 500 nM; in assay [4], > 5000 nM.

Take `Cc1cncc(-c2ccc(-c3cc4cnc(NC5CCOCC5)nc4n(Cc4ccccc4C(F)(F)F)c3=O)c(Cl)c2)n1` [Example 20]: the IC50 was 50 to 500 nM in assay [1], < 50 nM in assay [2], 50 to 500 nM in assay [3] and > 5000 nM in assay [4].

On to `O=c1c(-c2ccc(-c3cccnc3)cc2Cl)cc2cnc(NC3CCOCC3)nc2n1Cc1ccccc1C(F)(F)F` [Example 22], for which the IC50 in assay [1] is 50 to 500 nM; in assay [2], < 50 nM; in assay [3], 50 to 500 nM; in assay [4] it was > 5000 nM.

As to `Cc1cncc(-c2ccc(-c3cc4cnc(N[C@@H]5CCOC5)nc4n(C4CCNCC4)c3=O)c(Cl)c2)n1` [Example 105], the IC50 was 50 to 500 nM in assay [1], 50 to 500 nM in assay [2], 50 to 500 nM in assay [3] and > 5000 nM in assay [4].

Consider `CCn1c(=O)c(-c2ccc(-c3nccnc3C)cc2Cl)cc2cnc(NC3CCN(C)C3)nc21` (centres unmarked) [Example 78, 6-(2-chloro-4-(3-methylpyrazin-2-yl)phenyl)-8-ethyl-2-((1-methylpyrrolidin-3-yl)amino)pyrido[2,3-d]pyrimidin-7(8H)-one], for which the IC50 in assay [1] was 50 to 500 nM; in assay [2] it was 50 to 500 nM; in assay [3], 500 to 5000 nM; in assay [4], > 5000 nM.

On to `CCn1c(=O)c(-c2ccc(-c3cncc(C)n3)cc2Cl)cc2cnc(N[C@H]3CC[C@H](N)CC3)nc21` [Example 85], for which the IC50 in assay [1] is < 50 nM; in assay [2], < 50 nM; in assay [3] it was 50 to 500 nM; in assay [4] it was > 5000 nM.

In the case of `CCn1c(=O)c(-c2ccc(-c3nccnc3C)cc2Cl)cc2cnc(NC3CCNC3)nc21` (centres unmarked) [Example 83], the IC50 was 50 to 500 nM in assay [1], 50 to 500 nM in assay [2], 500 to 5000 nM in assay [3] and > 5000 nM in assay [4].

With `CCn1c(=O)c(-c2ccc(-c3cnccn3)cc2Cl)cc2cnc(N[C@@H]3CCOC3)nc21` [Example 60], the IC50 in assay [1] was 50 to 500 nM; in assay [2], 50 to 500 nM; in assay [3] it was 500 to 5000 nM; in assay [4], > 5000 nM.

As for `CCn1c(=O)c(-c2ccc(-c3cncc(C)n3)cc2Cl)cc2cnc(NC3CCC(CCN)CC3)nc21` (centres unmarked) [Example 134], the half-inhibitory concentration (IC50) in assay [1] is < 50 nM; in assay [2], < 50 nM; in assay [3] it was 50 to 500 nM; in assay [4], > 5000 nM.

`CCn1c(=O)c(-c2cc(C)c(-c3cncc(C)n3)cc2Cl)cc2cnc(N[C@@H]3CCOC3)nc21` [Example 71]: the IC50 is < 50 nM in assay [1], < 50 nM in assay [2], 50 to 500 nM in assay [3] and > 5000 nM in assay [4].

Take `CCn1c(=O)c(-c2ccc(-c3nccnc3C)cc2Cl)cc2cnc(NC3C[C@@H](C)O[C@@H](C)C3)nc21` (some centres unmarked) [Example 38]: the IC50 in assay [1] is < 50 nM; in assay [2] it was < 50 nM; in assay [3], 50 to 500 nM; in assay [4] it was > 5000 nM.

Take `Cc1cncc(-c2ccc(-c3cc4cnc(NC5CCCC5)nc4n([C@H]4CC[C@H](N)CC4)c3=O)c(Cl)c2)n1` [Example 118]: the IC50 in assay [1] was < 50 nM; in assay [2], < 50 nM; in assay [3] it was < 50 nM; in assay [4] it was 500 to 5000 nM.

Take `CCn1c(=O)c(-c2ccc(-c3nccnc3C)cc2Cl)cc2cnc(N[C@H]3CCOC(C)(C)C3)nc21` (stereo in doubt) [Example 77]: the IC50 in assay [1] was < 50 nM; in assay [2], < 50 nM; in assay [3], 50 to 500 nM; in assay [4], > 5000 nM.

Regarding `Cc1nccnc1-c1ccc(-c2cc3cnc(NC4CCOCC4)nc3[nH]c2=O)c(Cl)c1` [Example 10], the IC50 is 50 to 500 nM in assay [1], 50 to 500 nM in assay [2], 500 to 5000 nM in assay [3] and > 5000 nM in assay [4].
